What was measured:
[1] = target: T1, Stearoyl-CoA desaturase (Homo sapiens, UniProt O00767); test: Inhibition of SCD1 in human HepG2 cells; type: cell-based
T1 sequence (O00767 whole entry): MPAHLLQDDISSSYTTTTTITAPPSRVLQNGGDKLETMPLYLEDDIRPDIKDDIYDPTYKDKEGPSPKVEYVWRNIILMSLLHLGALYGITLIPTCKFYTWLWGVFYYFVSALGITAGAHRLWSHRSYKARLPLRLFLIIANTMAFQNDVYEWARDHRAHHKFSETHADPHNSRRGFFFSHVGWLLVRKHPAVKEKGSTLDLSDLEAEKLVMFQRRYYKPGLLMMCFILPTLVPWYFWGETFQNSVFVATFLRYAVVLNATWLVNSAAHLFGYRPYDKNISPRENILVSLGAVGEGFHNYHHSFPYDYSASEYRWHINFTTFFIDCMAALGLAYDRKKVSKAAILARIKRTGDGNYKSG

[2] = target: T2, Acyl-CoA desaturase 1 (Rattus norvegicus, UniProt P07308); test: Inhibition of SCD1 in Wistar rat liver microsomes using [14C] stearic acid as substrate incubated for 10 mins prior to substrate addition measured after 1 hr by chromatographic analysis; set-up: species or system Microsome
T2 sequence (P07308 whole entry): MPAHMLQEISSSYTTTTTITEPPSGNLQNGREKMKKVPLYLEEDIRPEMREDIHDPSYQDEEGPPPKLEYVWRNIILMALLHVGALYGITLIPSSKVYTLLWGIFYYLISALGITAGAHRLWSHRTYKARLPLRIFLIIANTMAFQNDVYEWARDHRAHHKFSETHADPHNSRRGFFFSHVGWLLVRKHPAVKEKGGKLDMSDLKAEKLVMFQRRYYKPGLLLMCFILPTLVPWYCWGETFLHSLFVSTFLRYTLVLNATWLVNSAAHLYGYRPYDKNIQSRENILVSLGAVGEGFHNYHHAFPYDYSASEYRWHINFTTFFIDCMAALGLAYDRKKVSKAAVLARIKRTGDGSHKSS

[3] = target: T2, Acyl-CoA desaturase 1; test: Inhibition of SCD1 in rat H42E cells; type: cell-based
[4] = Apparent half life in Zucker diabetic fatty rat at 30 mg/kg, po; type: ADME, organism-based; set-up: dose 30 mg/kg, route oral; details: in vivo, read-out: t1/2(app) (converted)
[5] = Plasma clearance in Zucker diabetic fatty rat at 5 mg/kg, iv; type: ADME, organism-based; set-up: dose 5 mg/kg, route intravenous
[6] = Lipophilicity, log D of the compound at pH 7.4; type: physicochemical; details: buffer
[7] = Drug metabolism in human in presence of quinidine; type: ADME, organism-based; details: in vivo, with quinidine, read-out: Drug metabolism
[8] = Oral bioavailability in Zucker diabetic fatty rat at 30 mg/kg; type: ADME, organism-based; details: in vivo
[9] = Drug metabolism in rat; type: ADME, organism-based; details: in vivo, read-out: Drug metabolism
[10] = Half life in Zucker diabetic fatty rat at 5 mg/kg, iv; type: ADME, organism-based; set-up: dose 5 mg/kg, route intravenous; details: in vivo
[11] = Drug metabolism in human in presence of ketoconazole; type: ADME, organism-based; details: in vivo, with ketoconazole, read-out: Drug metabolism
[12] = Permeability across human Caco2 cells; type: ADME, cell-based; details: Caco-2, read-out: permeability
[13] = Drug metabolism in human; type: ADME, organism-based; details: in vivo, read-out: Drug metabolism
[14] = tested on: Rattus norvegicus; test: In vivo inhibition of SCD1 in Zucker diabetic fatty rat assessed as decrease in serum fatty acid desaturation index at 30 mg/kg, po after 6 hrs relative to vehicle-treated control; type: functional
[15] = tested on: Rattus norvegicus; test: Volume of distribution at steady state in Zucker diabetic fatty rat at 5 mg/kg, iv; type: ADME, organism-based; set-up: dose 5 mg/kg, route intravenous; details: in vivo
[16] = Cmax in Zucker diabetic fatty rat at 30 mg/kg, po after 4 hrs; type: ADME, organism-based; set-up: dose 30 mg/kg, route oral; details: in vivo
[17] = Drug metabolism in mouse; type: ADME, organism-based; details: in vivo, read-out: Drug metabolism
[18] = tested on: HepG2; test: Inhibition of ACC phosphorylation in human HepG2 cells at 10 uM by Western blotting analysis relative to control; type: cell-based

O=C(NCc1ccc(Cl)s1)c1ccc2nc(-c3ccc(Oc4ccccc4C(F)(F)F)cc3)[nH]c2c1
IC50 [1]: 439 nM
IC50 [2]: 142 nM

CCn1c(COCc2ccccc2)nc2cc(C(=O)NCCc3ccc(O)cc3)ccc21
IC50 [2]: 5000 nM

O=C(NCc1ccc(Cl)s1)c1ccc2[nH]c(-c3ccc(C(=O)c4ccccc4C(F)(F)F)cc3)nc2c1
IC50 [3]: 182 nM
half-life [4]: 8.4 h
IC50 [1]: 157 nM
clearance [5]: 4.17 mL/min/kg
logD [6]: 3.94
metabolised [7]: 40%
bioavailability [8]: 25%
metabolised [9]: 40%
IC50 [2]: 136 nM
half-life [10]: 6.5 h
metabolised [11]: 10%
Papp [12]: 5.26 ×10⁻⁶ cm/s
metabolised [13]: 45%
inhibition in vivo at 30 mg/kg [14]: 84.4%
Vdss [15]: 1.7 L/kg
Cmax [16]: 1950 ng/mL

O=C(NCc1nccs1)c1ccc2nc(-c3ccc(Oc4ccccc4Cl)cc3)[nH]c2c1
IC50 [3]: 305 nM
IC50 [1]: 1160 nM
logD [6]: 2.24
metabolised [7]: 40%
metabolised [9]: 38%
IC50 [2]: 115 nM
metabolised [11]: 16%
Papp [12]: 6.36 ×10⁻⁶ cm/s
metabolised [17]: 23%
metabolised [13]: 45%

O=C(NCCC1CC1)c1ccc2nc(-c3ccc(Oc4ccccc4C(F)(F)F)cc3)[nH]c2c1
IC50 [2]: 539 nM

O=C(NCc1ccccc1)c1ccc2nc(-c3ccc(Oc4ccccc4)cc3)[nH]c2c1
IC50 [2]: 7810 nM

O=C(Cc1cccs1)Nc1ccc2nc(N3CCN(C(=O)c4ccccc4C(F)(F)F)CC3)[nH]c2c1
IC50 [2]: 3200 nM

O=C(NCCC1CC1)c1ccc2nc(-c3ccc(Oc4ccccc4Cl)cc3)[nH]c2c1
IC50 [1]: 2340 nM
metabolised [7]: 58%
metabolised [9]: 38%
IC50 [2]: 966 nM
metabolised [11]: 45%
Papp [12]: 16.7 ×10⁻⁶ cm/s
metabolised [17]: 49%
metabolised [13]: 62%

CC(C)CCNC(=O)c1ccc2nc(-c3ccc(Oc4ccccc4)cc3)[nH]c2c1
IC50 [2]: 21600 nM

O=C(c1ccccc1)c1ccc2nc(-c3ccc(Oc4ccccc4)cc3)[nH]c2c1
IC50 [2]: 15800 nM

O=C(NCCCc1ccccc1)c1ccc2nc(-c3ccc(Oc4ccccc4)cc3)[nH]c2c1
IC50 [2]: 28300 nM

O=C(Nc1nccs1)c1ccc2nc(-c3ccc(C(=O)c4ccccc4C(F)(F)F)cc3)[nH]c2c1
IC50 [2]: 4520 nM

O=C(NCc1nccs1)c1ccc2[nH]c(-c3ccc(Oc4ccccc4C(F)(F)F)cc3)nc2c1
IC50 [1]: 313 nM
IC50 [2]: 212 nM

O=C(NCCCc1ccccc1)c1ccc2nc(-c3ccc(Oc4ccccc4C(F)(F)F)cc3)[nH]c2c1
IC50 [2]: > 100000 nM

O=C(NCc1cccs1)c1ccc2nc(-c3ccc(C(=O)c4ccccc4C(F)(F)F)cc3)[nH]c2c1
IC50 [2]: 99 nM

CC(C)CCNC(=O)c1ccc2nc(-c3ccc(Oc4ccccc4C(F)(F)F)cc3)[nH]c2c1
IC50 [2]: 434 nM

CC(C)CCNC(=O)c1ccc2[nH]c(-c3ccc(Oc4ccccc4Cl)cc3)nc2c1
IC50 [2]: 2720 nM

O=C(NCc1ccc(Cl)s1)c1cccc(-c2nc3cc(Oc4ccccc4C(F)(F)F)ccc3[nH]2)c1
IC50 [2]: 2210 nM

O=C(NCc1ccc(Cl)s1)c1ccc2nc(-c3ccc(Oc4ccccc4Cl)cc3)[nH]c2c1
IC50 [1]: 1360 nM
metabolised [7]: 62%
metabolised [9]: 31%
IC50 [2]: 832 nM
metabolised [11]: 41%
Papp [12]: 11.4 ×10⁻⁶ cm/s
metabolised [17]: 36%
metabolised [13]: 64%

CNC(=O)c1ccc2nc(-c3ccc(Oc4ccccc4C(F)(F)F)cc3)[nH]c2c1
IC50 [2]: 27200 nM

OC(c1ccc2[nH]c(-c3ccc(OCc4ccccc4)cc3)nc2c1)c1ccccc1C(F)(F)F (racemic)
IC50 [3]: 14 nM
IC50 [1]: 295 nM
metabolised [7]: 60%
metabolised [9]: 20%
IC50 [2]: 82 nM
metabolised [11]: 46%
Papp [12]: 18.2 ×10⁻⁶ cm/s
metabolised [13]: 71%

O=C(c1ccccc1)c1ccc2nc(-c3ccc(C(=O)c4ccccc4C(F)(F)F)cc3)[nH]c2c1
IC50 [2]: > 100000 nM

O=C(c1ccccc1)c1ccc2nc(-c3ccc(-c4ccccc4)cc3)[nH]c2c1
IC50 [2]: > 100000 nM

CC(C)CCNC(=O)c1ccc2nc(-c3ccc(C(=O)c4ccccc4C(F)(F)F)cc3)[nH]c2c1
IC50 [2]: 3860 nM

O=C(NCc1cccc(C(F)(F)F)c1)c1ccc2[nH]c(-c3ccc(Oc4ccccc4)cc3)nc2c1
IC50 [2]: 11800 nM

O=C(NCc1ccc(Cl)s1)c1ccc2[nH]c(-c3ccc(Oc4ccccc4)cc3)nc2c1
IC50 [2]: 3700 nM

O=C(c1ccc2nc(-c3ccc(OCc4ccccc4)cc3)[nH]c2c1)c1ccccc1C(F)(F)F
IC50 [2]: 13300 nM

CCOC(=O)c1ccc2[nH]c(-c3ccc(Oc4ccccc4C(F)(F)F)cc3)nc2c1
IC50 [2]: 38300 nM

O=C(NCCC1CC1)c1ccc2[nH]c(-c3ccc(Oc4ccccc4Cl)cc3)nc2c1
inhibition [18]: 140%

O=C(CCc1ccccc1)Nc1ccc(N2CCN(C(=O)c3ccccc3C(F)(F)F)CC2)nc1
IC50 [2]: 2260 nM

O=C(NCc1nccs1)c1ccc2nc(-c3ccc(Oc4ccccc4)cc3)[nH]c2c1
IC50 [2]: 6510 nM

O=C(NCc1cccs1)c1ccc2nc(-c3ccc(Oc4ccccc4)cc3)[nH]c2c1
logD [6]: 3.68
IC50 [2]: 3760 nM

O=C(NCCC1CC1)c1ccc2nc(-c3ccc(Oc4ccccc4)cc3)[nH]c2c1
IC50 [2]: 24900 nM

O=C(NCc1nccs1)c1ccc2[nH]c(-c3ccc(C(=O)c4ccccc4C(F)(F)F)cc3)nc2c1
IC50 [3]: 104 nM
IC50 [1]: 179 nM
IC50 [2]: 78 nM

O=C(NCc1nccs1)c1cccc(-c2nc3cc(Oc4ccccc4C(F)(F)F)ccc3[nH]2)c1
IC50 [2]: 1300 nM

O=C(NCC1CC1)c1ccc2[nH]c(-c3ccc(Oc4ccccc4)cc3)nc2c1
IC50 [2]: 16600 nM

Reference: ChEMBL document CHEMBL2331419, “Benzimidazole-carboxamides as potent and bioavailable stearoyl-CoA desaturase (SCD1) inhibitors from ligand-based virtual screening and chemical optimization” (Bioorg Med Chem Lett, 2013)
